SMILES strings stand for the structures. Activity calls are given as the source filed them.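 Rule for the calls: active = compounds giving half or more protection of infected cells from virus-caused growth loss, again on retest; inactive = the rest.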 Where a SMILES comes first, the peptide text is derived from it. The star is where a group is joined. Cbz = O=C(OCc1ccccc1)*; OSu = O=C1CCC(=O)N1O*

The assay has as its system CEM cells HIV-1 protection, formazan growth assay. As to the kind of experiment: NCI AIDS Antiviral Assay. The following applies: for IC50: measured here: growth of uninfected CEM cells. An outline of the steps:
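Human CEM cells, uninfected and HIV-1-infected, received five drug concentrations, and growth was read by soluble formazan assay. Compounds giving at least 50% protection were retested; reproducible 100% protection defined confirmed active.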

As to `O=C(CC(=O)N1N=C(N(c2ccccc2)c2ccccc2)CC1c1ccccc1)Nc1ccc(Cl)cc1` (stereo not given), the outcome was inactive.
On the same count and under the same terms, next, `CC(C)NC(=O)OCc1nnn2c1CCC2`: “inactive”.
For the compound `COc1cc2c(cc1O)C1C(O2)c2ccc(OCc3ccccc3)cc2OC1(C)C` (stereo not given), the EC50 (as a rule, the concentration that produces a half-maximal response) is > 200 µM and the IC50 (in general, the point on the concentration scale where inhibition reaches its midpoint) worked out at 15.1 µM.
On the same counts, the results for `O=S(=O)(O)C(O)CCCC(O)S(=O)(=O)O` (stereo not given) are > 200 µM and 10.7 µM.
For the compound `Cn1c2c(c(=O)n(C)c1=O)CN(Cc1ccccc1)CN2`, the EC50 was > 200 µM and the IC50 is > 200 µM.
As to `CC(=O)OCC1=C2C(OC(=O)C(C)C)CC3(COC(C)=O)OC3/C=C\C3(C)OC3C2OC1=O` (stereo not given), the EC50 is > 200 µM and the IC50 was found to be 75.9 µM.
In the case of `COc1ccc(-c2c(C#N)c(NC(=S)NC(=O)c3ccccc3)nc3c2CCCC3)cc1OC`, the EC50 was > 200 µM and the IC50 was found to be 115 µM.
Regarding `COc1ccc(S(=O)(=O)NC(C)C(=O)O)cc1` (stereo not given), the outcome was inactive.
For `CS(=O)(=O)OCC1OC2OC3(CCCCC3)OC2C1OCc1ccccc1` (stereo not given), the EC50 was > 200 µM and the IC50 is 105 µM.
`CCCCC(C(=O)C(=O)NC1C2CC3CC(C2)CC1C3)C(=O)C(C)C` (stereo not given): the EC50 was > 74.1 µM and the IC50 is > 74.1 µM.
As for `Cc1cnc2c(c1C)C(=O)c1ccccc1C2=O`, the outcome was inactive.
`CSCC1CC(c2ccc(Cl)cc2)=NO1` (stereo not given): the EC50 is > 107 µM and the IC50 is > 107 µM.
With `S=C(c1c[nH]c2ccccc12)N1CCN(Cc2ccccc2)CC1`, the EC50 is > 200 µM and the IC50 turned out to be 37.2 µM.
On to `C[n+]1cn(-c2ccc([N+](=O)[O-])cn2)c2ccccc21`, for which the EC50 was > 200 µM and the IC50 was determined as 170 µM.
The like results for `COC1(OC)N=C(N)C2(C#N)/C(=N/N(C)C)CC(C)C12C#N` (stereo not given) were, in that order, > 200 µM and > 200 µM.
On the same counts, the results for `C(=C1/NC(c2ccccc2)=Nc2ccccc21)/c1ccccc1` are > 6.76 µM and > 6.76 µM.
For `O=C(CC(O)(C(F)(F)F)C(F)(F)F)c1cccc(Cl)c1`, the EC50 was > 200 µM and the IC50 is 182 µM.
The like results for `NC(=O)c1[nH]cnc1/N=N/SCC(N)C(=O)O` (stereo not given) were, in that order, > 200 µM and 0.794 µM.
As for `COc1ccc([C@]23CCC4(OCC(C)(C)CO4)[C@H]4CON(O[C@H](O[C@@H]5CCCCC5C(C)(C)c5ccccc5)C2)[C@@H]43)cc1OC` (stereo not given in full), the EC50 was > 50.1 µM and the IC50 was > 50.1 µM.
Regarding `Sc1nnc(-c2ccccc2Nc2ccccc2-c2nnc(S)n2-c2ccccc2)n1-c1ccccc1`, the EC50 was > 87.1 µM and the IC50 came to 25.1 µM.
In the case of `COc1ccc(OCC(=O)O)c2c1CCCC2=O`, the result was inactive.
Take `S=C1c2ccc(Cl)cc2-n2cnnc2C2CSCN12` (stereo not given): the EC50 was > 200 µM and the IC50 was > 200 µM.
With `Cn1nc2ccccc2cc1=O`, the EC50 is > 1550 µM and the IC50 is 661 µM.
As to `CC12CCC(=O)[C@@]1(C)CCCC2O` (stereo not given in full), the result was inactive.
As for `Cc1cc(NCCCCCCCCNc2cc(C)nc3cc(N)ccc23)c2ccc(N)cc2n1`, the EC50 is > 8.13 µM and the IC50 came out at 4.68 µM.
On the same counts, the results for `N#CC(/C(=N\NC(=O)c1ccncc1)C(=O)Nc1ccc([N+](=O)[O-])cc1[N+](=O)[O-])c1nc(-c2ccc(Br)cc2)cs1` (stereo not given) are > 389 µM and > 389 µM.
`CC(C)(C)[C@H]1CO[C@]2(C)[C@@H]3C[C@@H]3C(=O)N12`: the outcome was inactive.
Regarding `N=C1/C(=C/c2ccco2)C(=O)N=C2SC=NN12`, the EC50 is > 200 µM and the IC50 is > 200 µM.
With `CC(C)(C)N1COCO[C@H]2CCC[C@@H]21`, the EC50 is > 525 µM and the IC50 was 186 µM.
Take `CC1=C(c2cc(C(=O)Nc3nccs3)nc(NC#N)n2)Sc2ccccc2N1`: the EC50 is > 45.7 µM and the IC50 is > 45.7 µM.
For `N#CC(=C=[N-])[n+]1ccc(Cl)cc1`, the result was inactive.
Same read-out and setting: to `COC(=O)[C@@H]1CSC(=S)N1C(=O)C[C@@H]1CC=CC[C@@H]1CC(=O)Sc1ccccc1` belongs “inactive”.
With `CCCCc1ccc(N2C(=O)c3cc([N+](=O)[O-])cnc3S2(=O)=O)cc1`, the EC50 is > 2 µM and the IC50 worked out at 0.479 µM.
For the compound `CC(C)c1cccc(C(C)C)c1NC(=S)N=Nc1cc(C(C)(C)C)c(O)c(C(C)(C)C)c1`, the EC50 is > 5.75 µM and the IC50 was > 5.75 µM.
`C=C1C(=O)OC2CC(C)C(C(CC(C)=O)OC(C)=O)=CCC12` (stereo not given): the EC50 is > 324 µM and the IC50 was determined as 1.58 µM.
On the same counts, the results for `O=C(CC(=O)c1ccccc1NC1=Cc2ccccc2C(=O)C1=O)C(=O)NC1=C(Cl)C(=O)c2ccccc2C1=O` are > 18.2 µM and 3.24 µM.
In the case of `COC(=O)CCCC=C(c1cc(Cl)c(OC)c(C2=NC(C)(C)CO2)c1)c1cc(Cl)c(OC)c(C2=NC(C)(C)CO2)c1`, the outcome was inactive.
`CC(C)N(C(=O)C12C3C4C1C1C2C3C41C(O)C(C)(C)C)C(C)C` (stereo not given): the EC50 was 3.02 µM and the IC50 is 12 µM.
The like results for `Cn1cc(NC(=O)c2cc(NC(=O)CCCCCCCCC(=O)Nc3cc(C(=O)Nc4cc(C(=O)NCCC(N)N)n(C)c4)n(C)c3)cn2C)cc1C(=O)NCCC(=N)N` were, in that order, > 28.8 µM and 12.6 µM.
Take `CC1(C)COC(c2ccccc2-c2ccccc2)=N1`: the EC50 was > 200 µM and the 50% inhibitory concentration (IC50) was 132 µM.
The like results for `COC(=O)c1c(C(=O)OC)c2ccccn2c1-c1cc(C)cc2c1C(=O)C=CC2=O` were, in that order, > 200 µM and 0.468 µM.
Take `CCN(CC)C(=Nc1ccc(Cl)c(Cl)c1)SC(NC=O)=C(Cl)Cl`: the EC50 was > 200 µM and the IC50 stood at 19.5 µM.
On the same counts, the results for `C=C[C@@H](C)[C@@H](O[Si](C)(C)C(C)(C)C)c1c(O)c2c(c3c(CCC)cc(=O)oc13)OC(C)(C)C=C2` are > 200 µM and 105 µM.
For `O=C1c2ccccc2C2(c3ccc(Cl)cc3)N[C@H]3CCCC[C@@H]3N12` (stereo not given in full), the EC50 is > 200 µM and the IC50 worked out at 141 µM.
On the same counts, the results for `Cc1ccc(/C=C2/NC(=S)SC2=O)cc1` are > 200 µM and 170 µM.
On the same counts, the results for `C1=C\SS/C=C\SS/C=C\SS/C=C\SS/1` are 12.9 µM and 15.1 µM.
For the compound `C#Cc1c(C)c(/C=C/C(C)=C/C(=O)OC)n(C)c1C`, the result was inactive.
In the case of `Cc1nc2ccccc2c(N)c1-c1cc(C)c2c(C)nc3ccccc3c2n1`, the EC50 is > 200 µM and the IC50 was found to be 3.89 µM.
On to `CCCN(C)C(=O)N(CC)S(=O)(=O)c1ccc(Cl)cc1`, for which the result was inactive.
As for `O=C(/C=C/c1ccc(O)c(O)c1)OC(Cc1ccc(O)c(O)c1)C(=O)O` (stereo not given), the EC50 is > 200 µM and the IC50 came to 26.3 µM.
`CC[Si](CC)(CC)OC(C#N)c1ccc2c(c1)OCO2` (stereo not given): the outcome was inactive.
Regarding `O=C(NNc1nc2cc(F)ccc2n2cccc12)c1cnccn1`, the EC50 was > 200 µM and the IC50 turned out to be 3.47 µM.
`CC(C)C(N)=Nc1ccc(Cl)c(Cl)c1`: the EC50 is > 200 µM and the IC50 worked out at 72.4 µM.
As for `O=C1CCSC2=NCCN12`, the outcome was inactive.
Turning to `Cc1ccc(/C=C2\N=C(N3CCCCC3)NC2=O)cc1`, the EC50 was > 200 µM and the IC50 amounted to 191 µM.
The like results for `Nc1c(N=Nc2ccc(/C=C/c3ccc(N=Nc4cc(S(=O)(=O)O)c5cccnc5c4N)cc3S(=O)(=O)O)c(S(=O)(=O)O)c2)cc(S(=O)(=O)O)c2cccnc12` were, in that order, > 4.68 µM and > 4.68 µM.
Take `CCOC(=O)/C(C1=NCCN1)=C(\O)c1ccccc1`: the EC50 is 468 µM and the IC50 amounted to 912 µM.
Regarding `CC/C=C(\C)C(CCC)(CN=O)C(=O)OCC` (stereo not given), the outcome was inactive.
On the same count and under the same terms, to `CSC1(C(=O)O)C2CCC3C2CCC31` (stereo not given) belongs “inactive”.
`COC1CC(OC2C(C)OC(OC3C(C)OC(OC4C(C)OC(O[C@H]5CC[C@@]6(C)C(=CC[C@]7(O)[C@@H]6C[C@@H](O)[C@@]6(C)[C@]7(O)CC[C@@]6(O)C(C)=O)C5)CC4OC)CC3OC)CC2OC)OC(C)C1O` (stereo not given in full): the EC50 was > 200 µM and the IC50 was > 200 µM.
For the compound `CCN(CC)C(=O)c1ccc(O)c(OC)c1`, the EC50 was > 200 µM and the IC50 is > 200 µM.
As for `CC(=O)O[C@]1(C(C)=O)CC[C@H]2[C@@H]3C[C@H](C)C4=CC(=O)C=C[C@]4(C)[C@@]3(F)[C@@H](O)C[C@@]21C`, the result was inactive.
Take `CCOC(=O)c1[nH]cc(C)c1-c1cccn1-c1ccc(Cl)cc1[N+](=O)[O-]`: the EC50 is > 200 µM and the IC50 came out at 30.9 µM.
The like results for `COc1ccccc1N1C(Cl)C(=O)C1c1c[nH]c2ccccc12` (stereo not given) were, in that order, > 151 µM and 129 µM.
Turning to `CN1CCCc2nc3ccccc3n2C1`, the EC50 is > 36.3 µM and the IC50 was > 36.3 µM.
With `COc1ccc(OC)c(NC(=O)C(=O)NNC(=O)c2sc(NNC(C)=O)nc2C)c1`, the result was inactive.
With `O=C(NC(=O)c1cn(CCN2CCN(C(=O)NCCCCCCNC(=O)N3CCN(CCn4cc(C(=O)NC(=O)OCc5ccccc5)c(=O)[nH]c4=O)CC3)CC2)c(=O)[nH]c1=O)OCc1ccccc1`, the outcome was inactive.
`Cc1nc(N)nc(N)c1N1CCN(c2ccc(C#N)cc2)CC1`: the EC50 was > 100 µM and the IC50 is > 100 µM.
In the case of `CC(C)CC(=O)NC(NC(C)C)(C(F)(F)F)C(F)(F)F`, the EC50 was > 200 µM and the IC50 is > 200 µM.
For `N#Cc1ccccc1NC(=O)C(=O)c1c(O)c2ccccc2oc1=O`, the EC50 was > 741 µM and the IC50 is > 741 µM.
Turning to `CC(NC(=O)C(NC(=O)OCc1ccccc1)C(C)C)C(=O)NCC(=O)ON1C(=O)CCC1=O` (stereo not drawn) (Cbz-Val-Ala-Gly-OSu; configuration not given here), the EC50 was > 100 µM and the half-maximal inhibitory concentration (IC50) was > 100 µM.
For `O=C(NC(=Nc1ccccc1)SCCSC(=Nc1ccccc1)NC(=O)c1cccs1)c1cccs1`, the EC50 was > 3.63 µM and the IC50 was > 3.63 µM.

Source of the values: PubChem BioAssay AID179 (DTP/NCI, 2004).
